Measured values from patent US20250161332A1, “NON-PSYCHOACTIVE MULTI-CANNABINOID AND POLYSACCHARIDE AND POLYSACCHAROPEPTIDE-BASED THERAPEUTIC COMPOSITIONS AND METHODS OF THEIR ADMINISTRATIO” (Pebble Global Holdings, priority 2021, published 2025).

Assays:
[1] = cited from earlier work; for circulating metabolite as percent of the parent based on plasma AUC of cannabidiol: in vivo
[2] = tested on: animal models of epilepsy; conditions: in vivo; cited from earlier work
[3] = tested on: ovarian cancer cell lines; assay: Cell viability assay (tetrazolium to formazan), 10 ovarian cancer cell lines; type: cell-based; conditions: 72 h
Source text: Synergistic relationships for combinations of terpenoids and cannabinoids have been reported Russo, E. B. and J. Marcu, Chapter Three—Cannabis Pharmacology: The Usual Suspects and a Few Promising Leads, in Advances in Pharmacology, D. Kendall and S. P. H. Alexander, Editors. 2017, Academic Press. p. 67-134, the entire disclosure of which is incorporated herein by reference This observed synergy was strongly dependent on the ratio and origin of terpenoids, as shown in triple negative breast cancer models. In addition, many cannabinoids and terpenoids are immune suppressors as reported for alpha-bisabolol, which activates TGF to promote the differentiation of macrophages into the M2 phenotype (tumor promoting) and regulatory T cells. Ovarian cancer cell lines tested included A2780ip2, A2780CP20, HeyA8, HeyA8-MDR, SKOV3 and OVCAR3 and were maintained in RPMI 1640 supplemented with 10-15% fetal bovine serum and 0.1% gentamicin sulfate (available from Gemini Bioproducts, Calabasas, CA, USA). OVCAR5 cells were maintained in Dulbecco's modified Eagle's medium with 10% fetal bovine serum and 0.1% gentamicin sulfate. 1D8 murine ovarian cancer cells were maintained in Dulbecco modified
Eagle medium containing 10% fetal bovine serum (FBS), lx insulin-transferrin-selenium (available from Thermo Fisher Scientific, Waltham, MA), and 0.5% gentamicin. All above cells were cultured at 37° C. using a 5% C02 incubator. All in vitro experiments were performed with 70-80% confluent cultures and a passage number […].
Example 7. Cell viability assays. Cell viability assays were performed by testing ovarian cancer cells' metabolic ability to reduce the tetrazolium salt 3-(4,5-dimethylthiazol-2-yl)-5-(3-carboxymethoxyphenyl)-2-(4-sulfophenyl)-2H-tetrazolium (inner salt) to a formazan. […] Activities for each reagent were determined using Hill plot analyses (Graphpad Prism 8 software) to assess the half maximal effect—ICso. Results. […]

5 HT1A receptor = molecular target: T1, 5 HT1A receptor (Homo sapiens, UniProt P08908); conditions: cited from earlier work
T1 sequence (P08908 1-422): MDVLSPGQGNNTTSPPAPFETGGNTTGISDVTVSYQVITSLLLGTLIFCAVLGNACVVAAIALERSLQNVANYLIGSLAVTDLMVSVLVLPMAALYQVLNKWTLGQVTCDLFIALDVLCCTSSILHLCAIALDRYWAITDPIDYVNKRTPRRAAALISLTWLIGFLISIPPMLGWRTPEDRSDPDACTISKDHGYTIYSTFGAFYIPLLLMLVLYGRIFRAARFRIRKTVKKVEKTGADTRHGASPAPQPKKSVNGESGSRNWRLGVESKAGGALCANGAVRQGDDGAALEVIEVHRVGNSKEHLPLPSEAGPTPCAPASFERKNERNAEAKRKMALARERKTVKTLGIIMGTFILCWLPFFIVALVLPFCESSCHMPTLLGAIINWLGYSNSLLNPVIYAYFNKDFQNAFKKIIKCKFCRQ

A2780 and OVCAR5 = assay: Reverse Phase Protein Array (RPPA) and Ingenuity Pathway Analysis; type: cell-based; conditions: 5 μM (CBD content)
Source text: Example 11. Protein Expression Level Effects. […] Results.

CB2 = CB2 (Homo sapiens, UniProt P34972); conditions: cited from earlier work
OVCAR5 Luc = assay: In vivo dose finding and efficacy study, orthotopic xenograft model for ovarian cancer; design: species or system nude mice
Description: Example 10. In vivo dose finding and efficacy study. The purpose of this study was to determine the safety and efficacy of single agent CBD and annelix in an orthotopic xenograft model for ovarian cancer. This mouse model resembles the disease of ovarian cancer in humans with development of tumor nodules in the abdominal cavity and development of ascites. Method. Luciferase transfected human ovarian tumor cells, OVCAR5 Luc (1.0 million) were injected into the peritoneal cavity of nude mice, intra peritoneally (i.p.). On day 8 after tumor cell injection IVIS® optical imaging was performed to confirm tumor establishment. […] The study was an approved protocol of the MD Anderson Cancer Center (MDACC) Institutional Animal Care and Use Committee (IACUC). […] Mice were sacrificed on day 32 (post inoculation of cells) and tumors were harvested. Body weights, tumor weight, number of tumor nodules and ascites volumes were recorded. Results: The body weights, tumor weights, tumor nodules and ascites volumes for each of the treatment groups are shown in FIG. 4. […] Control mice received corn oil injections. Body weights were not affected by either the dose of annelix (aq.), nor by the dose of CBD in this study.

GPR55 = GPR55 (Homo sapiens, UniProt Q9Y2T6); conditions: cited from earlier work
normal endothelial cells = conditions: cited from earlier work
ALL = conditions: cited from earlier work
[4] = tested on: leukemia (P388), liver cancer (HepG2), skin melanoma (B16-F10), and myelogenous leukemia (K562); conditions: range over the four cell lines; cited from earlier work
B16-F10 melanoma = conditions: cited from earlier work
[5] = treatment regimens, cited from earlier work; for nausea and gastrointestinal (GI) AEs, occurrence: single agents

Sequence of CB2 (P34972 whole entry, species assumed): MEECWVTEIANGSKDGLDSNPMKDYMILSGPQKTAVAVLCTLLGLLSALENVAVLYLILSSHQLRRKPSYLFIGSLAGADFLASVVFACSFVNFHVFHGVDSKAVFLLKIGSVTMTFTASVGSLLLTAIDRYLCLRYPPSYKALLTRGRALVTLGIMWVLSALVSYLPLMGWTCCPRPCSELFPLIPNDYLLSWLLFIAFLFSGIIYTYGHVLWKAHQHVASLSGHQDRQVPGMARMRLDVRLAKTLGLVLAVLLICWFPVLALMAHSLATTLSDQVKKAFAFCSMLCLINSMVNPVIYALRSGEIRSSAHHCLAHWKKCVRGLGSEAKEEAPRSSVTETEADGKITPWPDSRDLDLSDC
Sequence of GPR55 (Q9Y2T6 whole entry, species assumed): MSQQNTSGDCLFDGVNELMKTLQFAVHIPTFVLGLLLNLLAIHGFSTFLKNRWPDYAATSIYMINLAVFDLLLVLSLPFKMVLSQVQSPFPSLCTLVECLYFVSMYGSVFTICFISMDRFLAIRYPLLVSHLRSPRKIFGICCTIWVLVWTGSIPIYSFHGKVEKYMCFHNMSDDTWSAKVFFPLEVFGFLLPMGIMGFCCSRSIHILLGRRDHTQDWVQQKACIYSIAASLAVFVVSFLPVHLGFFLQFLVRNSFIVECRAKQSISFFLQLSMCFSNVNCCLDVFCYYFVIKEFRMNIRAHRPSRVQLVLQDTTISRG

In the case of `C=C(C)[C@@H]1C[C@H](O)C(C)=C[C@H]1c1c(O)cc(CCCCC)cc1O` [6-OH-CBD, 6-hydroxy-cannabidiol], the “circulating metabolite as percent of the parent based on plasma AUC of cannabidiol” value [1] is given as less than 10%.
For `C=C(C)[C@@H]1CCC(C(=O)O)=C[C@H]1c1c(O)cc(CCCCC)cc1O` [7-COOH-CBD, 7-carboxy-cannabidiol], the “circulating metabolite level relative to parent” value ([1]; higher than the parent cannabidiol) is given as “approximately 40 fold” and the activity [2] is given as “inactive”.
In the case of `C=C(C)[C@@H]1CCC(CO)=C[C@H]1c1c(O)cc(CCCCC)cc1O` [7-OH-CBD, 7-hydroxy-cannabidiol], the “circulating metabolite as percent of the parent based on plasma AUC of cannabidiol” value [1] is listed as “approximately 38%” and the activity [2] is listed as “equipotent and active”.
`CCCCCc1cc(O)c2c(c1)OC(C)(CCC=C(C)C)C=C2` (stereo not drawn) [CBC, cannabichromene] showed an IC50 [3] of 25.9 to 49.9 µM.
For `C=C(C)[C@@H]1CCC(C)=C[C@H]1c1c(O)cc(CCCCC)cc1O` [CBD, cannabidiol], the enzymes primarily metabolizing ([1]; liver and gut) is listed as “CYP2C19, CYP3A4, and UGT1A7, UGT1A9, and UGT2B7”, the activity [2] is listed as “equipotent and active” and the IC50 [3] is listed as 7.8 to 14.7 µM. For the same compound, the “mode of action at 5 HT1A receptor” value (5 HT1A receptor) was “agonist”, the “most affected pathways versus DMSO” value (A2780 and OVCAR5; 8 and 24 hours) was “HER-2 signaling in breast cancer, PI3/AKT signaling, molecular mechanisms of cancer, systemic lupus erythematosus in B cell signaling pathway, and autophagy” and the most upstream regulators (A2780 and OVCAR5; 8 and 24 hours) was “p53, AKT, E2F1, beta-estradiol and ERBB2”. The “cell cycle checkpoint and DNA damage repair pathway proteins (Weel, CDC25, Rad51, chkl, ATR, ATM and p53)” value (A2780 and OVCAR5; compared to DMSO control) was “very few proteins, including ATR and CDC25, were downregulated”, the “affinity for CB2 receptor” value (CB2) was “little affinity” and the “tumor burden compared to control group” value (OVCAR5 Luc; 50 mg/kg i.p.) was “reduction in tumor burden”. For the same compound, the ascites volume (OVCAR5 Luc; 50 mg/kg i.p., statistical significance not reached) was “controlled”, the body weights (OVCAR5 Luc; 1, 10 and 50 mg/kg based on CBD content, i.p., 3 times per week until day 32) was “not affected” and the “tolerability / adverse effects” value (OVCAR5 Luc; 1, 10 and 50 mg/kg, i.p., 3 times per week until day 32) was “well tolerated and did not cause any adverse effects”. The “mode of action at GPR55” value (GPR55) was “antagonist”.
In the case of `CCCCCc1cc(O)c(C/C=C(\C)CCC=C(C)C)c(O)c1` [CBG, cannabigerol], the IC50 [3] is reported as 17 to 35 µM.
For `CC(C)=CCC[C@](C)(O)[C@@H]1CC=C(C)CC1` [alpha-bisabolol, (2S)-6-Methyl-2-[(1S)-4-methylcyclohex-3-en-1-yl]hept-5-en-2-ol], the IC50 (normal endothelial cells) is given as 5 µM and the IC50 (ALL) is given as 73 µM.
For `CC1=CC=C(C(C)C)CC1` [alpha-terpinene, 1-Isopropyl-4-methyl-1,3-cyclohexadiene], the IC50 [4] is given as 60 to 180 µM.
For `C=C1C2CCC(C2)C1(C)C` (stereo not drawn) [camphene, 2,2-Dimethyl-3-methyllidenebicyclo[2.2.1]heptane], the IC50 (B16-F10 melanoma) is listed as 529 µM.
In the case of `N.N.[Cl][Pt][Cl]` [cisplatinum], the “Neuropathy and neurological symptoms, occurrence” value [5] is listed as 94%.
For `Nc1ccn([C@@H]2O[C@H](CO)[C@@H](O)C2(F)F)c(=O)n1` [gemcitabine], the “nausea and gastrointestinal (GI) AEs, occurrence” value [5] is listed as 69%.
In the case of `CC[C@@]1(O)C(=O)OCc2c1cc1n(c2=O)Cc2cc3c(CN(C)C)c(O)ccc3nc2-1` [topotecan], the “nausea and gastrointestinal (GI) AEs, occurrence” value [5] is given as 63%.
